Measured values from US12721848B2, “Pharmaceutical composition for preventing or treating graft versus host disease comprising thiamine derivatives” (Kyungpook National University Industry-Academic Cooperation …, priority 2020, dated 2026).

Experiments:
[1] = system: graft versus host disease (GVHD) model mice
Excerpt: Referring to FIG. 2A, 5-week-old BALB/c male mice were acclimatized for 1 week, irradiated with 800 cGy radiation throughout the body, and then injected with 5×10^6 C57BL/6J-derived bone marrow cells and 1×10^7 splenocytes derived therefrom via IV injection, thereby constructing a GVHD in vivo model (positive control group, Positive). The syngeneic control group (Syngeneic) was constructed in the same manner as above while BALB/c-derived bone marrow cells were selected as the bone marrow cells to be injected.
The fursultiamine administration group (Fur50) was constructed by daily oral gavage of fursultiamine HCl at 50 mg/kg to the GVHD in vivo model.
The treatment effect of fursultiamine was investigated on the constructed experimental groups by measuring the change in weight every 3 days.
On Day 14, the comparison between the amounts of generation of CD4+ T cells and CD4+IFNg+ T cells, which are major factors causing GVHD, was performed in the spleens isolated from the mice.
On Day 14 of inducing the GVHD in vivo model, liver and large intestine tissues were extracted from the mice, fixed in 4% paraformaldehyde for 48 hours, and then embedded in paraffin. The resultant tissues were sliced into 5 μm sections and then subjected to hematoxylin and eosin (H&E) staining. (bar=100 um)

[2] = system: allo-reactive CD4+IFNg+ T cell generation; assay: mixed lymphocyte reaction (GVHD in vitro validation model), flow cytometry; assay type: cell-based, mouse; settings: for Amount of generation (%) of CD4+IFNg+ T cells: BALB/c irradiated splenocytes + C57BL6/J CD4+ T cells, 5 days, positive control 37.4, syngeneic control 15.3
Excerpt: A high amount of CD4+IFNg+ T cell generated can be inferred to allow the proliferation of T cells against allogenic antigens, thereby attacking the body organs of a patient. Therefore, a graft versus host disease (GVHD) in vitro validation model was subjected to a mixed lymphocyte reaction to compare the degree of allo-reactive CD4+IFNg+ T cell generation among thiamine derivatives by flow cytometry.
Specifically, BALB/c mice were sacrificed by cervical dislocation, and then the spleens were extracted, followed by erythrocyte lysis using ACK lysing buffer. Thereafter, the isolated spleen cells were irradiated at 2500 cGy.
The positive group was treated with 10, 50, and 100 uM benfotiamine, 1, 5, and 10 uM allithiamine, and 10, 50, and 100 uM fursultiamine to prepare experimental groups.
Thereafter, the cells were cultured in RPMI1640 (10% FBS, 1% penicillin streptomycin) at 37° C. for 5 days, and the cells were separated, followed by flow cytometry, to investigate the degree of CD4+IFNg+ T cell generation.

[3] = spleen, Day 14, 50 mg/kg daily oral, in words

Structure (SMILES): CC(=C(CCO)SSCC1CCCO1)N(C=O)Cc1cnc(C)nc1N (stereo in doubt) [Fursultiamine, fursultiamine]
- infiltration of immune cells in the liver tissue (H&E staining) ([1]; Day 14, 50 mg/kg daily oral, versus positive control group): reduced
- degree of infiltration of inflammatory cells into the liver and colon ([1]; GVHD-induced mouse model, summary statement): reducing the degree of infiltration
- change in weight compared with the GVHD in vivo model ([1]; fursultiamine HCl 50 mg/kg daily oral gavage, Day 12 of oral administration): significant recovery
- amount of generation of allogenic CD4+ T cells [1, 3]: reduced
- amount of generation of allogenic CD4+IFNg+ T cells [1, 3]: reduced
- Amount of generation of CD4+IFNg+ T cells (%) ([1]; spleen, Day 14, fursultiamine HCl 50 mg/kg daily oral gavage, positive control 18.3, syngeneic control 3.2): 12.6%
- Amount of generation of CD4+ T cells (%) ([1]; spleen, Day 14, fursultiamine HCl 50 mg/kg daily oral gavage, positive control 21.1, syngeneic control 6.9): 13.4%
- Amount of generation (%) of CD4+IFNg+ T cells ([2]; 10 μM): 34.9%
- Amount of generation (%) of CD4+IFNg+ T cells ([2]; 50 μM): 13.6%
- Amount of generation (%) of CD4+IFNg+ T cells ([2]; 100 μM): 12.5%
- degree of generation of CD4+IFNg+ T cells compared with the positive control ([2]; at 50 uM or more, concentration dependent): significant reduction

Structure (SMILES): C=CCSS/C(CCO)=C(/C)N(C=O)Cc1cnc(C)nc1N [Allithiamine, allithiamine]
- Amount of generation (%) of CD4+IFNg+ T cells ([2]; 1 μM): 35.2%
- Amount of generation (%) of CD4+IFNg+ T cells ([2]; 5 μM): 25.7%
- Amount of generation (%) of CD4+IFNg+ T cells ([2]; 10 μM): 23.9%
- degree of generation of CD4+IFNg+ T cells compared with the positive control ([2]; at 5 uM or more, concentration dependent): significant reduction

Structure (SMILES): C/C(=C(\CCOP(=O)(O)O)SC(=O)c1ccccc1)N(C=O)Cc1cnc(C)nc1N [Benfotiamine, benfotiamine]
- Amount of generation (%) of CD4+IFNg+ T cells ([2]; 10 μM): 36.8%
- Amount of generation (%) of CD4+IFNg+ T cells ([2]; 50 μM): 43.9%
- Amount of generation (%) of CD4+IFNg+ T cells ([2]; 100 μM): 40.1%
- degree of generation of CD4+IFNg+ T cells compared with the positive control ([2]; regardless of the concentration (10, 50, 100 uM)): no significant difference
